What was measured:
[1] = system: mixed bacterial inoculum (Table 6); experiment: Challenge test (preservative efficacy), mixed bacterial inoculum, full pool (Table 6); type: cell-based
Protocol: (§1) The preservative activity in representative rinse-off and leave-on formulations was evaluated using a modification of the Personal Care Products Council (PCPC—formerly the Cosmetic, Toiletry and Fragrance Association) protocol (Machtiger, et al. 2001. Determination of the Efficacy of Preservation of Non-Eye Area Water Miscible Cosmetic and Toiletry Formulations: Collaborative Study. J of AOAC International. 84:1, 101-109).
(§2) This evaluation was conducted using a four week, two or three-cycle (i.e., two-cycle for personal care and three-cycle for home care applications) microbial preservative efficacy test (i.e., challenge test) at 25° C. to determine the preservative efficacy of each treatment. Phenoxyethanol, benzyl alcohol and pelargonic acid were tested alone and in various combinations. The pelargonic acid used in the testing was purchased from Sigma-Aldrich. Combinations of phenoxyethanol or benzyl alcohol with benchmark multifunctional booster compounds were also tested for comparison. The preservative and booster ingredients were dosed and mixed thoroughly at room temperature into various formulations, specifically different personal care formulations including a lotion (leave-on, Table 1), a micellar water (rinse-off, Table 2), and a body wash formulation (rinse-off, Table 3) and different home care formulations including a manual dishwashing formulation (Table 4) and a liquid laundry detergent formulation (Table 5). […] Carbomers are a commonly used synthetic rheological modifier in personal care products. The formulation below was made by heating the aqueous (A) and oil (B) phases separately to 75-80° C. The oil phase was then poured into the aqueous phase and mixed by a homogenizer at approximately 45° C. The formed oil-in-water emulsion was cooled to room temperature. Triethanolamine and/or diluted sodium hydroxide was used to adjust the final pH to 6.3 or 6.5 (as indicated in the examples below).
(§3) After dosing, the samples were divided into two separate five gram aliquots. One aliquot was inoculated with 50 μl of a diluted bacterial pool, and the second aliquot was inoculated with 50 μl of a diluted fungal pool as described below. Unpreserved product samples were included as a growth control.
(§4) For personal care products, a mixed bacterial inoculum was prepared using 24-hour cultures of the test bacteria (Table 6) grown in trypticase soy broth (TSB). For home care products, a mixed bacterial inoculum was prepared using 24-hour cultures of the test bacteria either from Table 6 (full pool) or Table 7 (simplified pool) grown in trypticase soy broth (TSB). Details are disclosed in the home care examples below. Equal volumes of the bacterial test strains were combined and diluted one to ten in phosphate buffer to obtain an inoculum of approximately 5×10^7 to 5×10^8 colony forming units per ml (cfu/ml). The test samples were inoculated with 1% of the mixed bacterial inoculum. For both personal care and home care products, a mixed fungal inoculum was prepared using cell suspensions of the yeast Candida albicans ATCC #10231 and the mold Aspergillus brasiliensis ATCC #16404 in phosphate buffer. Equal volumes of the fungal test strains were combined and diluted one to ten with phosphate buffer to obtain an inoculum of approximately 5×10^6 to 5×10^7 cfu/ml. The test samples were inoculated with 1% of the mixed fungal inoculum.
(§5) For personal care products, the samples were subjected to two microbial challenges at time zero and inoculated a second time after seven days. For home care products, the samples were subjected to three microbial challenges at time zero and inoculated a second and third time after seven and fourteen days, respectively. The number of microorganisms added to each sample was determined by a standard Most Probable Number (MPN) determination in Trypticase Soy Broth (TSB) for bacteria and Potato Dextrose Broth (PDB) for fungi. Samples were incubated at 25° C. for the test duration of four weeks.

[2] = ZenBio Cupric Ion Chelating (CIC) Assay; type: physicochemical; settings: calculated from a EDTA calibration curve, Pelargonic Acid at 775 μM
Protocol: The chelation property of the pelargonic acid was measured by using the ZenBio Cupric Ion Chelating (CIC) Assay (Cat #AOX-16). The assay measured the capacity of the pelargonic acid to chelate free cupric ions in solution, thereby inhibiting Cu(II) binding to pyrocatechol violet (PV) for generating a highly colored complex. The absorbance of the Cupric-PV complex was measured at a wavelength of 632 nm. The cupric ion chelating activity was determined as the percent of total PV over the Cu(II) binding. Ethylenediaminetetraacetic acid (EDTA), a well-known chelating agent, was used as a positive control. A series of EDTA with 7 different concentrations from 0 to 1000 μM were prepared and their corresponding absorbance measured and used as the calibration curve (Cupric ion chelating (%) vs. EDTA concentration). Percent cupric ion chelating was determined following the following calculations and Equation 1. The background absorbance value by averaging the absorbance values of the three background wells (no CuSO4 or sample). The average background absorbance was then subtracted from all the sample absorbance values. The maximal absorbance value (Absmax) was determined by averaging the absorbance values of the three wells containing CuSO4, PV and assay buffer. Abstest in Equation 1 is the absorbance of the test sample.
The calibration curve (Cupric ion chelating (%) vs. EDTA concentration) was fit by using a polynomial curve after log 10 transforming the concentrations (R2>0.98).

[3] = system: mixed fungal inoculum: Candida albicans ATCC #10231 and Aspergillus brasiliensis ATCC #16404; experiment: Challenge test (preservative efficacy), mixed fungal inoculum; type: cell-based
Protocol: as §1, §2, §3, §4, §5

[4] = system: mixed bacterial inoculum for home care (Table 7); experiment: Challenge test (preservative efficacy), mixed bacterial inoculum, simplified pool (Table 7); type: cell-based, Pseudomonas aeruginosa, Staphylococcus aureus
Protocol: as §1, §2, §3, §4, §5

[5] = system: bacteria (Table 6 pool) and fungi; experiment: Challenge test, overall result (full bacteria pool and fungi); type: cell-based
Protocol: as §1, §2, §3, §4, §5

[6] = system: bacteria (Table 7 pool) and fungi; experiment: Challenge test, overall result (simplified bacteria pool and fungi); type: cell-based
Protocol: as §1, §2, §3, §4, §5

[7] = lotion with carbomer, pH 6.3, Example 1A, dosed 0.4 wt %
[8] = lotion with carbomer, pH 6.5, Example 1I, dosed 0.4 wt %
[9] = lotion with carbomer, pH 6.5, Example 1I, total dosing 0.8 wt %
[10] = liquid laundry detergent, pH 7.5, Example 1G, dosed 0.5 wt %
[11] = liquid laundry detergent, pH 7.5, Example 1G, dosed 1.0 wt %
[12] = liquid laundry detergent, pH 7.5, Example 1H, dosed 0.5 wt %
[13] = liquid laundry detergent, pH 7.5, Example 1H, dosed 1.0 wt %
[14] = manual dishwashing formulation, pH 5.5, Example 1F, dosed 0.5 wt %
[15] = manual dishwashing formulation, pH 5.5, Example 1F, dosed 1.0 wt %
[16] = micellar water, pH 6.0, Example 1B, dosed 0.3 wt %
[17] = micellar water, pH 6.0, Example 1C, dosed 0.3 wt %

## OCCOc1ccccc1 [Phenoxyethanol (POE), 2-phenoxyethan-1-ol]
[1]; liquid laundry detergent, pH 7.5, full bacteria pool, Example 1H, dosed 0.5 wt %
  Bacteria growth rating Result: Fail (growth rating score caused by bacteria of 2 or more at days 21-28 of the testing period)
[1]; liquid laundry detergent, pH 7.5, full bacteria pool, Example 1H, dosed 1.0 wt %
  Bacteria growth rating Result: Pass (growth rating score caused by bacteria of 1 or less at days 21-28 of the testing period)
[1]; [7]
  Bacteria growth rating Result: Fail (growth rating score caused by bacteria of 2 or more at days 21-28 of the testing period)
[1]; lotion with carbomer, pH 6.3, Example 1D, dosed 0.4 wt %
  Bacteria growth rating Result: Fail (growth rating score caused by bacteria of 2 or more at days 21-28 of the testing period)
[1]; lotion with carbomer, pH 6.3, Example 1D, dosed 0.8 wt %
  Bacteria growth rating Result: Pass (growth rating score caused by bacteria of 1 or less at days 21-28 of the testing period)
[1]; [8]
  Bacteria growth rating Result: Fail (growth rating score caused by bacteria of 2 or more at days 21-28 of the testing period)
[1]; [9]
  Bacteria growth rating Result: Pass (growth rating score caused by bacteria of 1 or less at days 21-28 of the testing period)
[1]; micellar water, pH 6.0, bacteria inoculation ~10^7 cfu/ml, Example 1B, dosed 0.3 wt %
  Bacteria growth rating Result: Pass (growth rating score caused by bacteria of 1 or less at days 21-28 of the testing period)
[1]; micellar water, pH 6.0, bacteria inoculation ~10^8 cfu/ml, Example 1C, dosed 0.3 wt %
  Bacteria growth rating Result: Fail (growth rating score caused by bacteria of 2 or more at days 21-28 of the testing period)
[2]; listed as Phenoxyethanol
  Calculated EDTA equivalent: ~0 µM
[2]; listed as phenoxyethanol
  Calculated EDTA equivalent: ~ 0 μM
[3]; [10]
  Fungi growth rating Result: Fail (growth rating score caused by fungi of more than 2 at days 21-28 of the testing period)
[3]; [11]
  Fungi growth rating Result: Fail (growth rating score caused by fungi of more than 2 at days 21-28 of the testing period)
[3]; [12]
  Fungi growth rating Result: Fail (growth rating score caused by fungi of more than 2 at days 21-28 of the testing period)
[3]; [13]
  Fungi growth rating Result: Fail (growth rating score caused by fungi of more than 2 at days 21-28 of the testing period)
[3]; [7]
  Fungi growth rating Result: Fail (growth rating score caused by fungi of more than 2 at days 21-28 of the testing period)
[3]; [8]
  Fungi growth rating Result: Fail (growth rating score caused by fungi of more than 2 at days 21-28 of the testing period)
[3]; [9]
  Fungi growth rating Result: Pass (growth rating score caused by fungi of 2 or less at days 21-28 of the testing period)
[3]; lotion, pH 6.5, Example 4, dosed 0.8 wt %
  Fungi growth rating Result: Pass (growth rating score caused by fungi of 2 or less at days 21-28 of the testing period)
[3]; manual dishwash formulation, pH 6.5, Example 4, dosed 0.8 wt %
  Fungi growth rating Result: Fail (growth rating score caused by fungi of more than 2 at days 21-28 of the testing period)
[3]; [14]
  Fungi growth rating Result: Fail (growth rating score caused by fungi of more than 2 at days 21-28 of the testing period)
[3]; [15]
  Fungi growth rating Result: Fail (growth rating score caused by fungi of more than 2 at days 21-28 of the testing period)
[3]; [16]
  Fungi growth rating Result: Fail (growth rating score caused by fungi of more than 2 at days 21-28 of the testing period)
[3]; [17]
  Fungi growth rating Result: Fail (growth rating score caused by fungi of more than 2 at days 21-28 of the testing period)
[4]; liquid laundry detergent, pH 7.5, simplified bacteria pool, Example 1G, dosed 0.5 wt %
  Bacteria growth rating Result: Pass (growth rating score caused by bacteria of 1 or less at days 21-28 of the testing period)
[4]; liquid laundry detergent, pH 7.5, simplified bacteria pool, Example 1G, dosed 1.0 wt %
  Bacteria growth rating Result: Pass (growth rating score caused by bacteria of 1 or less at days 21-28 of the testing period)
[4]; manual dishwashing formulation, pH 5.5, simplified bacteria pool, Example 1F, dosed 0.5 wt %
  Bacteria growth rating Result: Fail (growth rating score caused by bacteria of 2 or more at days 21-28 of the testing period)
[4]; manual dishwashing formulation, pH 5.5, simplified bacteria pool, Example 1F, dosed 1.0 wt %
  Bacteria growth rating Result: Fail (growth rating score caused by bacteria of 2 or more at days 21-28 of the testing period)
[5]; [12]
  Overall Result: Fail
[5]; [13]
  Overall Result: Fail
[5]; [7]
  Overall Result: Fail
[5]; [8]
  Overall Result: Fail
[5]; [9]
  Overall Result: Pass
[5]; [16]
  Overall Result: Fail
[5]; [17]
  Overall Result: Fail
[6]; [10]
  Overall Result: Fail
[6]; [11]
  Overall Result: Fail
[6]; [14]
  Overall Result: Fail
[6]; [15]
  Overall Result: Fail
